How the values were obtained:
[1] = test system: blackgrass; experiment: Test Example 5: herbicidal effect by foliage application, plastic box (Table 20, symbol J); format: in vivo, blackgrass (Alopecurus myosuroides); conditions: 320 g/ha, foliage application after 14-day growth, evaluated three weeks after application
Summary of the method: (§1)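 Foliar spray test: emulsion formulation diluted in water to a set application rate, sprayed onto 14-day-old plants raised in diluvial soil at 25° C to 30° C under glass. Both herbicidal effect and crop effect rated visually three weeks later.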

[2] = test system: blackgrass; experiment: Test Example 4: herbicidal effect by soil treatment (Table 19, symbol J); format: in vivo, blackgrass (Alopecurus myosuroides); conditions: amount of applied herbicide 320 g/ha
Summary of the method: (§2)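 Step 1: sow seeds in sterilized diluvial soil, cover ~1.5 cm. Step 2: spray diluted emulsion onto soil surface at predetermined rate. Step 3: greenhouse, 25–30° C, three weeks. Step 4: grade effect on each plant by earlier criteria.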

[3] = test system: wild oat; experiment: Test Example 5: herbicidal effect by foliage application, plastic box (Table 20, symbol I); format: in vivo, wild oat (Avena fatua); conditions: 320 g/ha, foliage application after 14-day growth, evaluated three weeks after application
Summary of the method: as §1

[4] = test system: redroot pigweed; experiment: Test Example 4: herbicidal effect by soil treatment (Table 19, symbol N); format: in vivo, redroot pigweed (Amaranthus retroflexus); conditions: amount of applied herbicide 320 g/ha
Summary of the method: as §2

[5] = test system: persian speedwell; experiment: Test Example 4: herbicidal effect by soil treatment (Table 19, symbol R); format: in vivo, Persian speedwell (Veronica persica); conditions: amount of applied herbicide 320 g/ha
Summary of the method: as §2

[6] = test system: barnyard grass; experiment: Test Example 5: herbicidal effect by foliage application, plastic box (Table 20, symbol H); format: in vivo, barnyard grass (Echinochloa crus-galli); conditions: 320 g/ha, foliage application after 14-day growth, evaluated three weeks after application
Summary of the method: as §1

[7] = test system: Italian ryegrass; experiment: Test Example 4: herbicidal effect by soil treatment (Table 19, symbol K); format: in vivo, Italian ryegrass (Lolium multiflorum); conditions: amount of applied herbicide 320 g/ha
Summary of the method: as §2

[8] = test system: chickweed; experiment: Test Example 5: herbicidal effect by foliage application, plastic box (Table 20, symbol P); format: in vivo, common chickweed (Stellaria media); conditions: 320 g/ha, foliage application after 14-day growth, evaluated three weeks after application
Summary of the method: as §1

[9] = test system: velvetleaf; experiment: Test Example 4: herbicidal effect by soil treatment (Table 19, symbol M); format: in vivo, velvetleaf (Abutilon theophrasti); conditions: amount of applied herbicide 320 g/ha
Summary of the method: as §2

[10] = test system: lambsquarters; experiment: Test Example 5: herbicidal effect by foliage application, plastic box (Table 20, symbol O); format: in vivo, lambsquarters (Chenopodium album); conditions: 320 g/ha, foliage application after 14-day growth, evaluated three weeks after application
Summary of the method: as §1

[11] = test system: windgrass; experiment: Test Example 4: herbicidal effect by soil treatment (Table 19, symbol L); format: in vivo, windgrass (Apera spica-venti); conditions: amount of applied herbicide 320 g/ha
Summary of the method: as §2

[12] = test system: barnyard grass; experiment: Test Example 4: herbicidal effect by soil treatment (Table 19, symbol H); format: in vivo, barnyard grass (Echinochloa crus-galli); conditions: amount of applied herbicide 320 g/ha
Summary of the method: as §2

[13] = test system: barnyard grass; experiment: Test Example 3: herbicidal effect by foliage application, Wagner pot (Table 18, symbol H); format: in vivo, barnyard grass (Echinochloa crus-galli); conditions: 320 g/ha
Summary of the method: (§3)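 Plants were sown in alluvial soil held under 0.1–0.5 cm standing water and grown 14 days in a greenhouse at 25–30 °C. An emulsifiable formulation, water-diluted to the set dose, was then sprayed onto the foliage, and effects were scored three weeks later using previously defined criteria.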

[14] = test system: chickweed; experiment: Test Example 4: herbicidal effect by soil treatment (Table 19, symbol P); format: in vivo, common chickweed (Stellaria media); conditions: amount of applied herbicide 320 g/ha
Summary of the method: as §2

[15] = test system: wild oat; experiment: Test Example 4: herbicidal effect by soil treatment (Table 19, symbol I); format: in vivo, wild oat (Avena fatua); conditions: amount of applied herbicide 320 g/ha
Summary of the method: as §2

[16] = test system: Japanese bulrush; experiment: Test Example 2: herbicidal activity, application during weed generation under submerged conditions (Table 17, symbol B); format: in vivo, Japanese bulrush (Schoenoplectus juncoides); conditions: AAH 320 g/ha; application during weed generation, submerged conditions
Summary of the method: (§4)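 Alluvial soil in Wagner pots was flooded to 4 cm depth and sown with the three weeds together; pots were kept in a greenhouse at 25° C. to 30° C. At the one to two leaf stage, an emulsion formulation diluted in water to a set rate went onto the water surface; scored three weeks later.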

[17] = test system: rice flat sedge; experiment: Test Example 3: herbicidal effect by foliage application, Wagner pot (Table 18, symbol E); format: in vivo, rice flat sedge (Cyperus iria); conditions: 320 g/ha
Summary of the method: as §3

[18] = test system: Chinese sprangletop; experiment: Test Example 3: herbicidal effect by foliage application, Wagner pot (Table 18, symbol D); format: in vivo, chinese sprangletop (Leptochloa chinensis); conditions: 320 g/ha
Summary of the method: as §3

[19] = test system: green foxtail; experiment: Test Example 5: herbicidal effect by foliage application, plastic box (Table 20, symbol G); format: in vivo, green foxtail (Setaria viridis); conditions: 320 g/ha, foliage application after 14-day growth, evaluated three weeks after application
Summary of the method: as §1

[20] = test system: lambsquarters; experiment: Test Example 4: herbicidal effect by soil treatment (Table 19, symbol O); format: in vivo, lambsquarters (Chenopodium album); conditions: amount of applied herbicide 320 g/ha
Summary of the method: as §2

[21] = test system: redroot pigweed; experiment: Test Example 5: herbicidal effect by foliage application, plastic box (Table 20, symbol N); format: in vivo, redroot pigweed (Amaranthus retroflexus); conditions: 320 g/ha, foliage application after 14-day growth, evaluated three weeks after application
Summary of the method: as §1

[22] = test system: oval-leafed pondweed; experiment: Test Example 2: herbicidal activity, application during weed generation under submerged conditions (Table 17, symbol C); format: in vivo, oval-leafed pondweed (Monochoria vaginalis); conditions: AAH 320 g/ha; application during weed generation, submerged conditions
Summary of the method: as §4

[23] = test system: late watergrass; experiment: Test Example 2: herbicidal activity, application during weed generation under submerged conditions (Table 17, symbol A); format: in vivo, late watergrass (Echinochloa oryzicola); conditions: AAH 320 g/ha; application during weed generation, submerged conditions
Summary of the method: as §4

[24] = test system: southern crabgrass; experiment: Test Example 4: herbicidal effect by soil treatment (Table 19, symbol F); format: in vivo, southern crabgrass (Digitaria ciliaris); conditions: amount of applied herbicide 320 g/ha
Summary of the method: as §2

[25] = test system: Italian ryegrass; experiment: Test Example 5: herbicidal effect by foliage application, plastic box (Table 20, symbol K); format: in vivo, Italian ryegrass (Lolium multiflorum); conditions: 320 g/ha, foliage application after 14-day growth, evaluated three weeks after application
Summary of the method: as §1

[26] = test system: windgrass; experiment: Test Example 5: herbicidal effect by foliage application, plastic box (Table 20, symbol L); format: in vivo, windgrass (Apera spica-venti); conditions: 320 g/ha, foliage application after 14-day growth, evaluated three weeks after application
Summary of the method: as §1

[27] = test system: southern crabgrass; experiment: Test Example 5: herbicidal effect by foliage application, plastic box (Table 20, symbol F); format: in vivo, southern crabgrass (Digitaria ciliaris); conditions: 320 g/ha, foliage application after 14-day growth, evaluated three weeks after application
Summary of the method: as §1

[28] = test system: green foxtail; experiment: Test Example 4: herbicidal effect by soil treatment (Table 19, symbol G); format: in vivo, green foxtail (Setaria viridis); conditions: amount of applied herbicide 320 g/ha
Summary of the method: as §2

[29] = test system: persian speedwell; experiment: Test Example 5: herbicidal effect by foliage application, plastic box (Table 20, symbol R); format: in vivo, Persian speedwell (Veronica persica); conditions: 320 g/ha, foliage application after 14-day growth, evaluated three weeks after application
Summary of the method: as §1

[30] = test system: velvetleaf; experiment: Test Example 5: herbicidal effect by foliage application, plastic box (Table 20, symbol M); format: in vivo, velvetleaf (Abutilon theophrasti); conditions: 320 g/ha, foliage application after 14-day growth, evaluated three weeks after application
Summary of the method: as §1

Compound: CCCC(=O)Oc1c(C)nn(C)c(=O)c1-c1c(-c2ccc(C(F)(F)F)cc2)sc2c(Cl)cccc12 [4-030]
- herbicidal effect on J: blackgrass (evaluation grade 0-5) [1]: 0 (Herbicidal rate of 5% or less (almost no effect))
- Herbicidal effect by soil treatment, J: blackgrass [2]: 0 (Herbicidal rate of 5% or less (almost no effect))
- herbicidal effect on I: wild oat (evaluation grade 0-5) [3]: 3 (Herbicidal rate of 40% or more and less than 70%)
- Herbicidal effect by soil treatment, N: redroot pigweed [4]: 0 (Herbicidal rate of 5% or less (almost no effect))
- Herbicidal effect by soil treatment, R: persian speedwell [5]: 0 (Herbicidal rate of 5% or less (almost no effect))
- herbicidal effect on H: barnyard grass (evaluation grade 0-5) [6]: 0 (Herbicidal rate of 5% or less (almost no effect))
- Herbicidal effect by soil treatment, K: Italian ryegrass [7]: 0 (Herbicidal rate of 5% or less (almost no effect))
- herbicidal effect on P: chickweed (evaluation grade 0-5) [8]: 5 (Herbicidal rate of 90% or more (almost completely withered))
- Herbicidal effect by soil treatment, M: velvetleaf [9]: 0 (Herbicidal rate of 5% or less (almost no effect))
- herbicidal effect on O: lambsquarters (evaluation grade 0-5) [10]: 0 (Herbicidal rate of 5% or less (almost no effect))
- Herbicidal effect by soil treatment, L: windgrass [11]: 0 (Herbicidal rate of 5% or less (almost no effect))
- Herbicidal effect by soil treatment, H: barnyard grass [12]: 0 (Herbicidal rate of 5% or less (almost no effect))
- herbicidal effect on barnyard grass (H) [13]: 3 (Herbicidal rate of 40% or more and less than 70%)
- Herbicidal effect by soil treatment, P: chickweed [14]: 3 (Herbicidal rate of 40% or more and less than 70%)
- Herbicidal effect by soil treatment, I: wild oat [15]: 0 (Herbicidal rate of 5% or less (almost no effect))
- herbicidal effect rating, B: Japanese bulrush [16]: 3 (Herbicidal rate of 40% or more and less than 70%)
- herbicidal effect on rice flat sedge (E) [17]: 3 (Herbicidal rate of 40% or more and less than 70%)
- herbicidal effect on Chinese sprangletop (D) [18]: 5 (Herbicidal rate of 90% or more (almost completely withered))
- herbicidal effect on G: green foxtail (evaluation grade 0-5) [19]: 0 (Herbicidal rate of 5% or less (almost no effect))
- Herbicidal effect by soil treatment, O: lambsquarters [20]: 0 (Herbicidal rate of 5% or less (almost no effect))
- herbicidal effect on N: redroot pigweed (evaluation grade 0-5) [21]: 0 (Herbicidal rate of 5% or less (almost no effect))
- herbicidal effect rating, C: oval-leafed pondweed [22]: 3 (Herbicidal rate of 40% or more and less than 70%)
- herbicidal effect rating, A: late watergrass [23]: 3 (Herbicidal rate of 40% or more and less than 70%)
- Herbicidal effect by soil treatment, F: southern crabgrass [24]: 0 (Herbicidal rate of 5% or less (almost no effect))
- herbicidal effect on K: Italian ryegrass (evaluation grade 0-5) [25]: 0 (Herbicidal rate of 5% or less (almost no effect))
- herbicidal effect on L: windgrass (evaluation grade 0-5) [26]: 5 (Herbicidal rate of 90% or more (almost completely withered))
- herbicidal effect on F: southern crabgrass (evaluation grade 0-5) [27]: 0 (Herbicidal rate of 5% or less (almost no effect))
- Herbicidal effect by soil treatment, G: green foxtail [28]: 0 (Herbicidal rate of 5% or less (almost no effect))
- herbicidal effect on R: persian speedwell (evaluation grade 0-5) [29]: 5 (Herbicidal rate of 90% or more (almost completely withered))
- herbicidal effect on M: velvetleaf (evaluation grade 0-5) [30]: 0 (Herbicidal rate of 5% or less (almost no effect))
